Literature values, collected in US20040235753A1, “Oxytocin agonists” (priority 2001, published 2004).
Where two headings read alike, the source gives them in different places.

Tested on: erectile response
Settings: male rats

## CC[C@H](C)[C@@H]1NC(=O)[C@H](Cc2ccc(O)cc2)NC(=O)[C@@H](N)CSSC[C@@H](C(=O)N2CCC[C@H]2C(=O)N[C@@H](CC(C)C)C(=O)NCC(N)=O)NC(=O)[C@H](CC(N)=O)NC(=O)[C@H](CCC(N)=O)NC1=O [OT, oxytocin]
i.c.v.
  erectogenic activity: erectogenic
i.v., doses required up to two orders of magnitude greater than i.c.v.
  erectogenic activity: erectogenic activity
